Measurements as given in the supplement of paper PMC10627819.

What was measured:
S. aureus DSM 20231 [1] = experiment: fitness (endpoint OD595 vs no drug) (fraction); higher = more growth
In short: (§1)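 Growth medium was TSB, LB Lennox or CY, and plates were kept at 37 °C. Inoculation was at OD595 0.01 in 384-well plates, at 30 µl per well or 55 µl for S. pneumoniae. OD595 was monitored every 30 min for 14 h and background-subtracted using the first reading. Fitness is the optical density on entering stationary phase divided by the robust mean of no-drug controls, with values capped at 1.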

B. subtilis 168 [2] = experiment: as above
In short: as §1

S. aureus DSM 20231 [3] = experiment: Bliss interaction score (quartile over a dose matrix) (fitness difference); higher = more antagonism (negative = synergy)
In short: (§2)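 At entry into stationary phase, OD595 was recorded and divided by the robust mean of the no-drug wells on that plate, with any value above 1 set to 1. This gives the fitness measure used throughout. Single-drug fitness was inferred from combination data, and the Bliss score, observed minus product-expected fitness, is shown as quartiles across technical, biological and donor/recipient replicates.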

B. subtilis 168 [4] = experiment: as above
In short: as §2

S. aureus Newman = experiment: as above
In short: as §2

S. pneumoniae D39V = experiment: as above
In short: as §2
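For Bliss interaction score (quartile over a dose matrix) in this document: first quartile when negative (synergy) and third quartile when positive (antagonism).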

Cc1ncc([N+](=O)[O-])n1CCO [Metronidazole] + COc1cc(Cc2cnc(N)nc2N)cc(OC)c1OC [Trimethoprim]
fitness
Conditions	first compound 0.625 µg/mL	first compound 1.25 µg/mL	first compound 2.5 µg/mL
B. subtilis 168 [2], partner 0.25 µg/mL	0.743	0.724	0.72
B. subtilis 168 [2], partner 0.5 µg/mL	0.568	0.531	0.471
S. aureus DSM 20231 [1], partner 0.125 µg/mL	0.704	0.744	0.749
S. aureus DSM 20231 [1], partner 0.25 µg/mL	0.607	0.619	0.652
S. aureus DSM 20231 [1], partner 1 µg/mL	0.0438	0.0565	0.0572

fitness, B. subtilis 168 [2], one replicate
Conditions	partner 0.1 µg/mL	partner 0.125 µg/mL	partner 0.2 µg/mL	partner 0.4 µg/mL	partner 1 µg/mL	partner 2 µg/mL
first compound 0.625 µg/mL	0.832	0.747	0.759	0.572	0.419	0.373
first compound 1.25 µg/mL	0.866	0.772	0.83	0.555	0.341	0.361
first compound 2.5 µg/mL	0.956	0.785	0.828	0.578	0.396	0.44

Conditions	Bliss interaction score
B. subtilis 168 [4]	0.11
S. aureus DSM 20231 [3]	-0.0577
S. aureus Newman	0.0902
S. pneumoniae D39V	0.232

COc1ccc(C[C@H](N)C(=O)N[C@H]2[C@@H](O)[C@H](n3cnc4c(N(C)C)ncnc43)O[C@@H]2CO)cc1 [Puromycin] + COc1cc(Cc2cnc(N)nc2N)cc(OC)c1OC [Trimethoprim]
fitness, one replicate
Conditions	first compound 0.39 µg/mL	first compound 0.78 µg/mL	first compound 1.56 µg/mL	first compound 3.12 µg/mL	first compound 6.24 µg/mL
B. subtilis 168 [2], partner 0.1 µg/mL	0.818	0.875	0.962	–	–
B. subtilis 168 [2], partner 0.125 µg/mL	0.756	0.748	0.77	–	–
B. subtilis 168 [2], partner 0.2 µg/mL	0.814	0.85	0.831	–	–
B. subtilis 168 [2], partner 0.4 µg/mL	0.562	0.581	0.575	–	–
B. subtilis 168 [2], partner 1 µg/mL	0.332	0.342	0.365	–	–
B. subtilis 168 [2], partner 2 µg/mL	0.326	0.29	0.235	–	–
S. aureus DSM 20231 [1], partner 0.125 µg/mL	0.804	0.921	–	0.908	0.596
S. aureus DSM 20231 [1], partner 0.25 µg/mL	–	–	–	0.812	0.631
S. aureus DSM 20231 [1], partner 0.5 µg/mL	–	–	–	0.48	0.613

fitness
Conditions	first compound 0.39 µg/mL	first compound 0.78 µg/mL	first compound 1.56 µg/mL
B. subtilis 168 [2], partner 0.25 µg/mL	0.695	0.738	0.71
B. subtilis 168 [2], partner 0.5 µg/mL	0.492	0.481	0.514
S. aureus DSM 20231 [1], partner 0.125 µg/mL	–	–	0.876
S. aureus DSM 20231 [1], partner 0.25 µg/mL	0.605	0.639	0.682
S. aureus DSM 20231 [1], partner 0.5 µg/mL	0.164	–	0.222
S. aureus DSM 20231 [1], partner 1 µg/mL	0.0431	0.0497	0.0562

Conditions	Bliss interaction score
B. subtilis 168 [4]	0.0908
S. aureus DSM 20231 [3]	0.113
S. aureus Newman	0.0927
S. pneumoniae D39V	-0.203
